# Data published in US11186587B2, “Compound as ACC inhibitor and use thereof” (NANJING SANHOME PHARMACEUTICAL CO., LTD., priority 2017, dated 2021).
# Read-outs that look alike come from different tables or passages of the source.
# Assays:
# ACC1 = ACC1 (Homo sapiens (Human), UniProt Q13085); experiment: ACC1 enzyme activity assay (ADP-Glo); type: biochemical; details: ACC1 enzyme 2 nM working solution, room temperature
# Method: (§1) Compound preparation: the compounds of the present disclosure prepared in the above examples and the control compound were respectively formulated into 10 mM with DMSO for use.
# (§2) Preparation of 1× reaction buffer (pH=7.4): HEPES stock solutions (1 M), MgCl2 (1 M), BRIJ-35 (10%), potassium citrate buffer (1 M), BSA (10 mg/mL) and DTT (500 mM) were formulated to enzyme reaction buffer containing HEPES (50 mM), MgCl2 (2 mM), BRIJ-35 (0.01%), potassium citrate buffer (2 mM), BSA (50 Gg/mL) and DTT (2 mM).
# 4.5 μL of 2.2×ACC1 enzyme (2 nM) working solution was added to a 384-well plate; and then 0.5 μL of different concentrations of compound were added. The mixture was incubated at room temperature for 15 min.
# (§3) Negative control group: menstruum containing 5% DMSO; positive control group: menstruum containing 100 nM ND-630. The average values of each concentration and the positive and negative controls were calculated, and the standard deviation was calculated. […] The inhibition rate data was fitted by nonlinear regression equation to calculate IC50 of each compound. The nonlinear regression equation was Y=lowest value+(highest value−lowest value)/(1+10^((Log IC50−X)×HillSlope)), among which X is logarithm of the compound concentration and Y is inhibition percent (%).
# ACC2 = ACC2 (Homo sapiens (Human), UniProt O00763); experiment: ACC2 enzyme activity assay (ADP-Glo); type: biochemical; details: ACC2 enzyme 1.1 nM working solution, room temperature
# Method: as §1, §2
# The mixture was incubated at room temperature for 15 min.
# as §3
# [1] = Evaluation of compound distribution in rat liver; type: in vivo; details: male SD rats, single oral 3 mg/kg, 0.25 h after administration
# Method: An acclimation period of 2-3 days was given before the experiments. The rats were fasted for 8-12 h before administration, supplied with water 2 h after administration and foods 4 h after administration.
# 6 mg of the test compound (based on free base) was weighed and added to 20 mL of ethanol-PEG400-saline (10:30:60). The mixture was vortexed for 2 min, and sonicated for 3 min, and then used to prepare a solution of test sample solution with a concentration of 0.3 mg/mL for oral administration. 100 μL of the test sample solution was volumed to 10 ng/mL with methanol, and a control sample of the same concentration was prepared. The concentrations of the test sample and control sample were detected by HPLC, and the accuracy was calculated.
# SD rats were given a single oral administration of 3 mg/kg of test compound at a dose of 10 mL/kg. The rats were bled in femoral artery and ruptured in neck 0.25 h after administration. The liver and blood samples (anticoagulation with heparin sodium) were collected immediately, and placed on ice.
# The homogenate was centrifuged (centrifugation conditions: 8000 rpm/min, 5 min, 4° C.). The supernatant was transferred and subjected to cryopreservation. The supernatant was thawed and centrifuged before injection, and the supernatant was collected and subjected to LC-MS/MS for analyzing the content of the compound in the supernatant sample.
# The collected whole blood sample was placed on ice and centrifuged within 30 min (centrifugation conditions: 8000 rpm/min, 5 min, 4° C.). 100 μL of the upper layer of plasma was transferred, and precipitated with 300 μL of methanol. The mixture was shaken and centrifuged, and diluted with mobile phase. The supernatant was collected and subjected to LC-MS/MS for analyzing the content of the compound in the supernatant sample.
# [2] = system: HFD-CCL4 induced NASH model; experiment: Drug efficacy on NASH and liver fibrosis induced by HFD-CCL4; type: in vivo; details: C57BL/6 mice, HFD 10 weeks + CCL4 4 weeks; intragastric once a day for 4 weeks; Example 25 10 mg/kg/d, ND-630 30 mg/kg/d; H&E staining
# Method: High-fat diet (HFD) was used to induce liver steatosis in animals, and then carbon tetrachloride (CCL4) was used to induce liver inflammation, necrosis, and liver fibrosis. This model was similar to the human NASH disease process and pathological phenomenon. The purpose of this experiment was to evaluate the efficacy of the compound of the disclosure in a NASH model of C57BL/6 mice induced by HFD-CCL4, with ND-630 as a control compound. HFD-CCL4 inducement was performed for 10 weeks and drug intervention was performed for 4 weeks. The therapeutic effects of the drug on NASH and liver fibrosis were observed.
# The test compounds in the examples of the present disclosure and ND-630 were diluted to 0.3 mg/mL, 1 mg/mL, 3 mg/mL with PEG200:0.2M Na2HPO4-NaH2PO4 buffer (35:65), which was prepared just before use.
# HFD-CCL4 induced NASH model in C57BL/6 mice: the animals were first housed in the SPF barrier of the KCI Experimental Animal Center for 3-7 days, and then the animals were changed to HFD feeding in a cycle of 10 weeks. […]
# The left liver lobe sample was fixed with 10% formalin and embedded in paraffin to prepare 5 μm sections for haematoxylin-eosin (H&E) staining. Hematoxylin-eosin staining can detect tissue inflammation, fat deposition, vacuolar degeneration and tissue fibrosis, giving semi-quantitative analysis for the lesion.
# The data were expressed as mean±standard error. […]
# Sequence of ACC2 (O00763 whole entry): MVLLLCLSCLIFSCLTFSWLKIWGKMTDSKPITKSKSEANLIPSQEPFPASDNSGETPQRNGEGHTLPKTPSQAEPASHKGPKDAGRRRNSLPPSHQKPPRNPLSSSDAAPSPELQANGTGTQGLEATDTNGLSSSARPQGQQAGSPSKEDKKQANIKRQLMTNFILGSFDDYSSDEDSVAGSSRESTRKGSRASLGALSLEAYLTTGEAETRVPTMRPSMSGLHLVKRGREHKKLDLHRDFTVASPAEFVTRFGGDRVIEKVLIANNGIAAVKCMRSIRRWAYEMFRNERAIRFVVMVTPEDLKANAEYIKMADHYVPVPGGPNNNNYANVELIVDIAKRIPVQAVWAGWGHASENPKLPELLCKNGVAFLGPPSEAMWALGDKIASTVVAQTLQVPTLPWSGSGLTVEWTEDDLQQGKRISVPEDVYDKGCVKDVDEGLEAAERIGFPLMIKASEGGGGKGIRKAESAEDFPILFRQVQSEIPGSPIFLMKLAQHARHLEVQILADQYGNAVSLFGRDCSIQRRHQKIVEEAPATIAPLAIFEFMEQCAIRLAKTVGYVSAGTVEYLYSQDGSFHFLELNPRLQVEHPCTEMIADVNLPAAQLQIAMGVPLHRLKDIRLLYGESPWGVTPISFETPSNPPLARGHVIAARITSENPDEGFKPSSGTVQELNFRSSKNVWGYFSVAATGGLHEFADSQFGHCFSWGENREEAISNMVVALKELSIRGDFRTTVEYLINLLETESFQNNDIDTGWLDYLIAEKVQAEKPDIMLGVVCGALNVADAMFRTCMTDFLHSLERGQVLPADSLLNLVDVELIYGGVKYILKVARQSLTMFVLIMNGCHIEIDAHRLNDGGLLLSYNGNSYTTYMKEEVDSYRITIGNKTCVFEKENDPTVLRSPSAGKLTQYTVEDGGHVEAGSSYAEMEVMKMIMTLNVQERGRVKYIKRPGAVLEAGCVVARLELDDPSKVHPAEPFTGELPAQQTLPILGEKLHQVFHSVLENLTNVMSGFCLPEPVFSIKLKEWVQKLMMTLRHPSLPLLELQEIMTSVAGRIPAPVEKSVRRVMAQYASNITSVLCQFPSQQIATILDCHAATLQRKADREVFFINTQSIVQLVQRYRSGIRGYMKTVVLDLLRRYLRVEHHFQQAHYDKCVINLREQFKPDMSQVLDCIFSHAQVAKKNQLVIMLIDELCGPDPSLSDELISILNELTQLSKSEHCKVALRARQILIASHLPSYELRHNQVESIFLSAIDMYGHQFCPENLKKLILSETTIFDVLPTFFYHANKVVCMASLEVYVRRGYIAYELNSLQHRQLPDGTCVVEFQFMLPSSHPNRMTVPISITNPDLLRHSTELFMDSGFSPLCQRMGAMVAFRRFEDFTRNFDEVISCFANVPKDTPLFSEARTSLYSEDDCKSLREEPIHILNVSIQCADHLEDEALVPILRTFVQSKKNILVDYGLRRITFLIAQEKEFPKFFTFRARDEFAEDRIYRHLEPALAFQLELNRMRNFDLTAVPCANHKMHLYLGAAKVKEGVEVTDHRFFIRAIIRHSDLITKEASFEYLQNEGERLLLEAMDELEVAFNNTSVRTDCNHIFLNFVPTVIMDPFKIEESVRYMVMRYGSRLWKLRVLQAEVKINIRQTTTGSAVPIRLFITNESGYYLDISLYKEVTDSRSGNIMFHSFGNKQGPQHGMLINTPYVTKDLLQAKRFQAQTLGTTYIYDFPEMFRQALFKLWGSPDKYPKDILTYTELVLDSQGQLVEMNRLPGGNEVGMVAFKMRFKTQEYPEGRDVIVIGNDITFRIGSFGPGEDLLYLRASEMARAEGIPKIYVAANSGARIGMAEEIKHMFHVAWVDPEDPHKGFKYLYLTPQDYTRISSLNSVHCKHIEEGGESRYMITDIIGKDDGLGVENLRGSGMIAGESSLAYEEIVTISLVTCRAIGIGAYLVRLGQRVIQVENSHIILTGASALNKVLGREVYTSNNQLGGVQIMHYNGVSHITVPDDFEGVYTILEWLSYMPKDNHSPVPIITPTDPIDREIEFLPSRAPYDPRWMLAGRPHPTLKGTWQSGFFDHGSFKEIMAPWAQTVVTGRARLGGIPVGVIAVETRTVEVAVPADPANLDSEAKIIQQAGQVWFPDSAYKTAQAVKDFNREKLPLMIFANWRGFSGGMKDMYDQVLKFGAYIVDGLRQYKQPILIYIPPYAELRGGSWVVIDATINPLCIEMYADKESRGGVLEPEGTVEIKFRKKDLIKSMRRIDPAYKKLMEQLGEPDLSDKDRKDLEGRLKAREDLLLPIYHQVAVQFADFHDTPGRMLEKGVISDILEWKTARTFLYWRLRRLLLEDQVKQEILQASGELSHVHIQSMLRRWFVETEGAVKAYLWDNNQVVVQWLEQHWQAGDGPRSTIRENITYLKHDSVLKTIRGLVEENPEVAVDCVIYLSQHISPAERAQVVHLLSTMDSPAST
smiles,measurement,setting,value
"COc1ccccc1[C@H](Cn1c(=O)n(C(C)(C)C(=O)O)c(=O)c2c(C)c(-c3ncco3)sc21)OC1CCOCC1 [ND-630, 2-[1-[2-(2-methoxyphenyl)-2-(oxecyclo-4-yloxy)ethyl]-5-methyl-6-(1,3-oxazol-2-yl)-2,4-dioxo-1H,2H,3H,4H-thieno[2,3-d]pyrimidin-3-yl]-2-methylpropanoic acid, reference compound]",IC50,ACC1,0.5 nM
same,IC50,ACC2,3.56 nM
same,concentration at 0.25 h,"[1]; liver, read-out: Concentration in Liver",6070 ng/g
same,Kp at 0.25 h,"[1]; liver/plasma, read-out: Liver/plasma distribution ratio",41.8
same,concentration at 0.25 h,"[1]; plasma, read-out: Concentration in Plasma",145 ng/mL
same,Hepatic steatosis score (Mean ± SD),[2],0.13 ± 0.32
same,Hepatocyte necrosis score (Mean ± SD),[2],1.00 ± 0.61
